Test results as given in BigSolDB 2.1.

## O=C[C@H](O)[C@H](O)[C@H](O)CO
In acetone, 283.15 K
  solubility (mole fraction): 0.00234
In acetone, 293.15 K
  solubility (mole fraction): 0.00302
In acetone, 303.15 K
  solubility (mole fraction): 0.00509
In acetone, 313.15 K
  solubility (mole fraction): 0.0077
In acetone, 323.15 K
  solubility (mole fraction): 0.0118
In acetonitrile, 283.15 K
  solubility (mole fraction): 0.00109
In acetonitrile, 293.15 K
  solubility (mole fraction): 0.00144
In acetonitrile, 303.15 K
  solubility (mole fraction): 0.0022
In acetonitrile, 313.15 K
  solubility (mole fraction): 0.00357
In acetonitrile, 323.15 K
  solubility (mole fraction): 0.00626
In dichloromethane, 283.15 K
  solubility (mole fraction): 0.000102
In dichloromethane, 288.15 K
  solubility (mole fraction): 0.000257
In dichloromethane, 293.15 K
  solubility (mole fraction): 0.000367
In dichloromethane, 298.15 K
  solubility (mole fraction): 0.000402
In dichloromethane, 303.15 K
  solubility (mole fraction): 0.000529
In ethanol, 283.15 K
  solubility (mole fraction): 0.00798
In ethanol, 293.15 K
  solubility (mole fraction): 0.0121
In ethanol, 303.15 K
  solubility (mole fraction): 0.0213
In ethanol, 313.15 K
  solubility (mole fraction): 0.0394
In ethanol, 323.15 K
  solubility (mole fraction): 0.0675
In ethyl acetate, 283.15 K
  solubility (mole fraction): 0.000876
In ethyl acetate, 293.15 K
  solubility (mole fraction): 0.00107
In ethyl acetate, 303.15 K
  solubility (mole fraction): 0.00162
In ethyl acetate, 313.15 K
  solubility (mole fraction): 0.00257
In ethyl acetate, 323.15 K
  solubility (mole fraction): 0.0036
In isobutanol, 283.15 K
  solubility (mole fraction): 0.00334
In isobutanol, 293.15 K
  solubility (mole fraction): 0.00421
In isobutanol, 303.15 K
  solubility (mole fraction): 0.0063
In isobutanol, 313.15 K
  solubility (mole fraction): 0.0102
In isobutanol, 323.15 K
  solubility (mole fraction): 0.0156
In isopropanol, 283.15 K
  solubility (mole fraction): 0.00457
In isopropanol, 293.15 K
  solubility (mole fraction): 0.00703
In isopropanol, 303.15 K
  solubility (mole fraction): 0.0117
In isopropanol, 313.15 K
  solubility (mole fraction): 0.021
In isopropanol, 323.15 K
  solubility (mole fraction): 0.0426
In methanol, 283.15 K
  solubility (mole fraction): 0.0313
In methanol, 288.15 K
  solubility (mole fraction): 0.0457
In methanol, 293.15 K
  solubility (mole fraction): 0.0587
In methanol, 298.15 K
  solubility (mole fraction): 0.0771
In methanol, 303.15 K
  solubility (mole fraction): 0.108
In n-butanol, 283.15 K
  solubility (mole fraction): 0.00388
In n-butanol, 293.15 K
  solubility (mole fraction): 0.00485
In n-butanol, 303.15 K
  solubility (mole fraction): 0.00814
In n-butanol, 313.15 K
  solubility (mole fraction): 0.0124
In n-butanol, 323.15 K
  solubility (mole fraction): 0.0201
In n-hexane, 283.15 K
  solubility (mole fraction): 3.77e-05
In n-hexane, 293.15 K
  solubility (mole fraction): 7.32e-05
In n-hexane, 303.15 K
  solubility (mole fraction): 0.000101
In n-hexane, 313.15 K
  solubility (mole fraction): 0.000174
In n-hexane, 323.15 K
  solubility (mole fraction): 0.000205
In n-propanol, 283.15 K
  solubility (mole fraction): 0.00515
In n-propanol, 293.15 K
  solubility (mole fraction): 0.00691
In n-propanol, 303.15 K
  solubility (mole fraction): 0.0112
In n-propanol, 313.15 K
  solubility (mole fraction): 0.0179
In n-propanol, 323.15 K
  solubility (mole fraction): 0.0305
In sec-butanol, 283.15 K
  solubility (mole fraction): 0.00484
In sec-butanol, 293.15 K
  solubility (mole fraction): 0.00567
In sec-butanol, 303.15 K
  solubility (mole fraction): 0.00894
In sec-butanol, 313.15 K
  solubility (mole fraction): 0.0152
In sec-butanol, 323.15 K
  solubility (mole fraction): 0.0242
